Test results reported in patent publication US20060135515A1, “Heterocyclic amides and their use treating thromboembolic diseases and tumors” (priority 2002, published 2006).

Key:
FXa = FXa (Homo sapiens, UniProt P00742); assay: Inhibition of factor Xa (FXa-IC50); type: biochemical
Excerpt: The inhibition of factor Xa by the compounds according to the invention and the measurement of the anticoagulant and antithrombotic activity can be determined by conventional in-vitro or in-vivo methods. A suitable method is described, for example, by J. Hauptmann et al. in Thrombosis and Haemostasis 1990, 63, 220-223.
The inhibition of factor Xa can be measured, for example by the method of T. Hara et al. in Thromb. Haemostas. 1994, 71, 314-319.

TF/FVIla = TF/FVIla (Homo sapiens, UniProt P08709); assay: Inhibition of TF/factor VIIa (TF/FVIIa-IC50); type: biochemical
Chain of TF/FVIla (P08709 213-466 limits assumed): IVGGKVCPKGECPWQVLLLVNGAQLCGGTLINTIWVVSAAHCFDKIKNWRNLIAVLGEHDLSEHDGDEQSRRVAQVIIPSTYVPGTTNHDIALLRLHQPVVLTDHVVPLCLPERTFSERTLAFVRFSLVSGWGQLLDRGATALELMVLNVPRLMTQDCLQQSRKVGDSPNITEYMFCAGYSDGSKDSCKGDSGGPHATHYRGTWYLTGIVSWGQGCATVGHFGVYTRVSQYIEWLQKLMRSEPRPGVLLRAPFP
Chain of TF/FVIla (P08709 61-212 partner limits assumed): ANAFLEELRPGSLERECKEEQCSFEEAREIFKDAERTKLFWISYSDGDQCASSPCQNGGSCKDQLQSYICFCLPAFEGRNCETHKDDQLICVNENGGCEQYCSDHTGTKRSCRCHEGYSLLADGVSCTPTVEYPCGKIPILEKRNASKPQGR
Chain of TF/FVIla (P13726 33-295 partner): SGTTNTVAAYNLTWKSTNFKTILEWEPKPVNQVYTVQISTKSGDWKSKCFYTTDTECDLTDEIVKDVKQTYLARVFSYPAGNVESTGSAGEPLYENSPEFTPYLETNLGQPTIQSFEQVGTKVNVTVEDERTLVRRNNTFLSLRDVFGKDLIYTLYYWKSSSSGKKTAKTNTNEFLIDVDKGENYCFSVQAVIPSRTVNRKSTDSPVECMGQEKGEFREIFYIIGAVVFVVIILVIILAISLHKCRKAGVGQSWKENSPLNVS
Excerpt: The inhibition of factor VIIa by the compounds according to the invention and the measurement of the anticoagulant and antithrombotic activity can be determined by conventional in-vitro or in-vivo methods. A conventional method for the measurement of the inhibition of factor VIIa is described, for example, by H. F. Ronning et al. in Thrombosis Research 1996, 84, 73-81.

Chain of FXa (P00742 235-488 limits assumed): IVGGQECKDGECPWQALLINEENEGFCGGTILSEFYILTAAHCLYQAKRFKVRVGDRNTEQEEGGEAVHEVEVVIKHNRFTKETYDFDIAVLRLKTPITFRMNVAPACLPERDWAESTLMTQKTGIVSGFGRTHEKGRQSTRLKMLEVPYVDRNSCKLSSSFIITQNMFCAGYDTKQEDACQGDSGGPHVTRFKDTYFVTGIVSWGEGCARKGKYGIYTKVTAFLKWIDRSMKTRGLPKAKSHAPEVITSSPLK
Chain of FXa (P00742 41-179 partner limits assumed): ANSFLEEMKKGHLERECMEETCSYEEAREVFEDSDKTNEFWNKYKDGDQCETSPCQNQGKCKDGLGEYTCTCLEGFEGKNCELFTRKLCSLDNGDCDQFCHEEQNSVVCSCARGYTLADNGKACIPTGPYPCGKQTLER

SMILES | IC50 (FXa) [µM] | IC50 (TF/FVIla) [µM]
CCC[C@@H](NC(=O)Nc1ccc(Cl)s1)C(=O)Nc1ccc(N2CCOCC2=O)c(C)c1 [Compound A2, (R)-2-[3-(5-chlorothiophen-2-yl)ureido]-N-[4-(3-oxomorpholin-4-yl)-3-methylphenyl]valeramide] | 0.066 | 0.066
CCCC(NC(=O)Nc1ccc(Cl)s1)C(=O)Nc1ccc(N2CCOCC2=O)cc1 (stereo not shown) [Compound A1, N-[4-(3-oxomorpholin-4-yl)-phenyl]-2-[3-(5-chlorothiophen-2-yl)ureido]valeramide] | 0.19 | 0.18
